Earlier results in PMC3501146 (ACS Chemical Biology, 2012).

Tested on: Lactococcus lactis subsp. cremoris HP
Conditions: indicator strain L. lactis subsp. cremoris HP

MIC against L. lactis subsp. cremoris HP (nisin): 0.032 µM
Substance: nisin (ITSISLCTPGCKTGALMGCNMKTATCHCSIHVSK; not fully specified; Lantibiotic nisin-A; UniProt P13068 24-57, looked up)
